Experiments:
[1] = Solubility in water; assay type: physicochemical; settings: general statement, no test described
[2] = cold and warm water; from Beilsteins Handbuch; cited from earlier work

Löslichkeit in Wasser [1] | Compound | Löslichkeit in kaltem und warmen Wasser [2]
gut löslich | Cc1cc(=O)oc2cc(O)ccc12 [Natriumsalz] | 
 | Cc1cc(=O)oc2cc(O)ccc12 [Hymecromon, 7-Hydroxy-4-methyl-cumarin] | nahezu unlöslich
